Patent publication US9186354B2, “Pyrrolidine derived β3 adrenergic receptor agonists” (Merck Sharp & Dohme Corp., priority 2010, dated 2015)

Molecular target: T1, β3AR (Rattus norvegicus, UniProt P26255)
T1 construct: Following intravenous administration to rats; host or cells: live rats (endogenous receptor, bladder)
Assay: not given
Details: rats, intravenous administration; cited from earlier work

T1 sequence (P26255 whole entry): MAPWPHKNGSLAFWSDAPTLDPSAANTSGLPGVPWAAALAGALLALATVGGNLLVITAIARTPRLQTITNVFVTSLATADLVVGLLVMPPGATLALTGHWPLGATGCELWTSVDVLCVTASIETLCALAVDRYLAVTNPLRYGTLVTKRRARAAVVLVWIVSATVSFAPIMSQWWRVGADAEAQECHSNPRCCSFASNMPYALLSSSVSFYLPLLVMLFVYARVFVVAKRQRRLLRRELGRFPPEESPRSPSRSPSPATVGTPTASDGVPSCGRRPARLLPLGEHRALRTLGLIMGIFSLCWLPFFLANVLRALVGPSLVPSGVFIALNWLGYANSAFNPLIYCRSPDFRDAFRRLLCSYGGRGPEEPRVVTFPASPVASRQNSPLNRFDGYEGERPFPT

Row | Compound | bladder pressure
1 | C[C@H](Cc1ccc2c(c1)OC(C(=O)[O-])(C(=O)[O-])O2)NC[C@H](O)c1cccc(Cl)c1.[Na+].[Na+] [CL316243] | reduces bladder pressure

Same assay, conditions: rats, intravenous administration; prolongation of micturition interval without increasing residual urine volume; cited from earlier work

Row | Compound | bladder capacity (cystometric studies)
2 | C[C@H](Cc1ccc2c(c1)OC(C(=O)[O-])(C(=O)[O-])O2)NC[C@H](O)c1cccc(Cl)c1.[Na+].[Na+] [CL316243] | increases bladder capacity

Molecular target: T2, human β3 adrenergic receptor (Homo sapiens, UniProt P13945)
T2 construct: stably transfected with the cloned β-adrenergic receptor (β1, β2 or β3); expressed in transfected cells; host or cells: Chinese hamster ovary (CHO) cells, stably transfected
Assay: β3AR-cAMP functional assay in CHO cells stably transfected with cloned β3-adrenergic receptor (LANCE)
Assay type: cell-based
Details: Table 2; Beta-3 agonist in vitro functional assay, given as ranges; read-out: Human β3 Agonist Functional Activity
Experimental: Functional Assay: cAMP production in response to ligand is measured according to Barton, et al. (1991, Agonist-induced desensitization of D2 dopamine receptors in human Y-79 retinoblastoma cells. Mol. Pharmacol. […]) modified as follows. cAMP production is measured using a homogenous time-resolved fluorescence resonance energy transfer immunoassay (LANCE™, Perkin Elmer) according to the manufacture's instructions. Chinese hamster ovary (CHO) cells, stably transfected with the cloned β-adrenergic receptor (β1, β2 or β3) are harvested after 3 days of subculturing. Harvesting of cells is done with Enzyme-free Dissociation Media (Specialty Media). Cells are then counted and resuspended in assay buffer (Hank's Balanced salt solution supplemented with 5 mM HEPES, […]) containing a phosphodiesterase inhibitor (IBMX, 0.6 mM). The reaction is initiated by mixing 6,000 cells in 6 μL with 6 μL Alexa Fluor labeled cAMP antibody (LANCE™ kit) which is then added to an assay well containing 12 μL of compound (diluted in assay buffer to 2× final concentration). The reaction proceeds for 30 minutes at room temperature and is terminated by the addition of 24 ul detection buffer (LANCE™ kit). The assay plate is then incubated for 1 hour at room temperature and time-resolved fluorescence measured on a Perkin Elmer Envision reader or equivalent. The unknown cAMP level is determined by comparing fluorescence levels to a cAMP standard curve.
The non-selective, full agonist […] ligand isoproterenol is used at all three receptors to determine maximal stimulation. The human β3 adrenergic receptor (AR) selective ligand (S)—N-[4-[2-[[2-hydroxy-3-(4-hydroxyphenoxy)propyl]amino]ethyl]-phenyl]-4-iodobenzenesulfonamide is used as a control in all assays. Isoproterenol is titrated at a final concentration in the assay of 10^−10 M to 10^−5 M and the selective ligand (S)—N-[4-[2-[[2-hydroxy-3-(4-hydroxyphenoxy)propyl]amino]ethyl]phenyl]-4-iodobenzenesulfonamide is titrated at the β3 receptor at concentration of 10^−10 M to 10^−5 M. Unknown ligands are titrated at all 3 β-adrenergic receptor subtypes at a final concentration in the assay of 10^−10 M to 10^−5 M to determine the EC50. The EC50 is defined as the concentration of compound that gives 50% activation of its own maximum.

T2 sequence (P13945 whole entry): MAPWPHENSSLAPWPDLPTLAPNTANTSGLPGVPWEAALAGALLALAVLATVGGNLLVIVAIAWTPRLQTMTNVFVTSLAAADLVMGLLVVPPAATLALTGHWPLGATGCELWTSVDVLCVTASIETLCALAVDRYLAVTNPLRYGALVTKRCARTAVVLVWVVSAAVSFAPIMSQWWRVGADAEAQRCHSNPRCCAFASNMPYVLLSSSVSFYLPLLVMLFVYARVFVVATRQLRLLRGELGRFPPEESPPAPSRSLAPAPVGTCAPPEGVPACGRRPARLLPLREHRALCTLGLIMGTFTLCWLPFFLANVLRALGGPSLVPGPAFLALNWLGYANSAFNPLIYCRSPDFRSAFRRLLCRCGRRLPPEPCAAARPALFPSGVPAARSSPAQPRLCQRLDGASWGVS

Row | Compound | EC50 [nM]
3 | Cn1nnnc1[C@H]1[C@@H]2CN(C(=O)c3ccc(C[C@@H]4CC[C@H]([C@H](O)c5ccccc5)N4)cn3)C[C@@H]21 [Example 9, (R)-{(2R, 5S)-5-[(6-{[6-(1-methyl-1H-tetrazol-5-yl)-3-azabicyclo[3.1.0]hex-3-yl]carbonyl}pyridin-3-yl)methyl]pyrrolidin-2-yl)(phenyl)methanol] | 11 to 100
4 | CCc1nnc([C@H]2[C@@H]3CN(C(=O)c4ccc(C[C@@H]5CC[C@H]([C@H](O)c6ccccc6)N5)cn4)C[C@@H]32)o1 [Example 12, (R)-{(2R, 5S)-5-[(6-{[6-(5-ethyl-1,3,4-oxadiazol-2-yl)-3-azabicyclo[3.1.0]hex-3-yl]carbonyl}pyridin-3-yl)methyl]pyrrolidin-2-yl)(phenyl)methanol] | 11 to 100
5 | O=C(c1ccc(C[C@@H]2CC[C@H]([C@H](O)c3ccccc3)N2)cn1)N1C[C@@H]2[C@H](C1)[C@H]2c1nnco1 [Example 11, (R)-{(2R, 5S)-5-[(6-{[6-(1,3,4-oxadiazol-2-yl)-3-azabicyclo[3.1.0]hex-3-yl]carbonyl}pyridin-3-yl)methyl]pyrrolidin-2-yl)(phenyl)methanol] | 11 to 100
6 | O=C(c1ccc(C[C@@H]2CC[C@H]([C@H](O)c3ccccc3)N2)cn1)N1C[C@@H]2[C@H](C1)[C@H]2c1nnc(-c2cnccn2)o1 [Example 13, (R)-phenyl{(2R, 5S)-5-[(6-{[6-(5-pyrazin-2-yl-1,3,4-oxadiazol-2-yl)-3-azabicyclo[3.1.0]hex-3-yl]carbonyl}pyridin-3-yl)methyl]pyrrolidin-2-yl)methanol] | < 10
7 | O=C(c1ccc(C[C@@H]2CC[C@H]([C@H](O)c3ccccc3)N2)cn1)N1C[C@@H]2[C@H](C1)[C@H]2c1nnnn1CC(F)(F)F [Example 10] | 11 to 100
8 | O=C(c1ccc(C[C@@H]2CC[C@H]([C@H](O)c3ccccc3)N2)cn1)N1CCC2(CCOC2=O)CC1 [Example 8, 8-{[5-({(2S, 5R)-5-[(R)-hydroxy(phenyl)methyl]pyrrolidin-2-yl}methyl)pyridin-2-yl]carbonyl}-2-oxa-8-azaspiro[4.5]decan-1-one] | 11 to 100
9 | O=C(c1ccc(C[C@@H]2CC[C@H]([C@H](O)c3ccccc3)N2)cn1)N1CCN(Cc2nnn(CC(F)(F)F)n2)CC1 [Example 14, (R)-phenyl[(2R, 5S)-5-({6-[(4-{[2-(2,2,2-trifluoroethyl)-2H-tetrazol-5-yl]methyl}piperazin-1-yl)carbonyl]pyridin-3-yl}methyl)pyrrolidin-2-yl]methanol] | 11 to 100

Same assay, conditions: cAMP production, CHO cells expressing human β3 AR; read-out: human β3 functional activity

Row | Compound | EC50 [nM]
10 | O=C(c1ccc(C[C@@H]2CC[C@H]([C@H](O)c3ccccc3)N2)cn1)N1C[C@@H]2C(n3cnnn3)[C@@H]2C1 (stereo partly drawn) [Example 6, (R)-phenyl[(2R,5S)-5-[(6-{[(1R,5S,6S)-6-(1H-tetrazol-1-yl)-3-azabicyclo[3.1.0]hex-3yl]carbonyl}pyridin-3-yl)methyl]pyrrolidine-2-yl]methanol] | 11 to 100
11 | O=C(c1ccc(C[C@@H]2CC[C@H]([C@H](O)c3ccccc3)N2)cn1)N1CCN(Cc2ccccn2)CC1 [Example 7, (R)-phenyl[(2R,5S)-5-[(6-{[4-(pyridin-2-ylmethyl)piperazin-1-yl]carbonyl}pyridin-3-yl)methyl]pyrrolidin-2-yl]methanol] | 101 to 1000
12 | O=C(c1ccc(C[C@@H]2CC[C@H]([C@H](O)c3ccccc3)N2)cn1)N1CCC(c2nnnn2CC(F)(F)F)CC1 [Example 5, (R)-Phenyl-(2R,5S)-5-{[6-({4-[1-(2,2,2-trifluoroethyl)-1H-tetrazol-5-yl]piperidin-1-yl}carbonyl-pyridin-3-yl]methyl}pyrrolidin-2-yl)methanol] | 101 to 1000
13 | O=C(Nc1ccc(C[C@@H]2CC[C@H]([C@H](O)c3ccccc3)N2)cn1)[C@@H]1CCc2scnc21 [Example 1] | 20.4

Molecular target: T2, human β3 adrenergic receptor
Assay: as above
Assay type: cell-based
Details: Table 1; determined with β3AR-cAMP assay, given as ranges; read-out: Human β3 Binding

Row | Compound | EC50 [nM]
14 | O=C(Nc1ccc(C[C@@H]2CC[C@H]([C@H](O)c3ccccc3)N2)cn1)C1CCc2nccc(=O)n21 (stereo partly drawn) [Example 2, N-[5-({(2S, 5R)-5-[(R)-hydroxy(phenyl)methyl]pyrrolidin-2-yl}methyl)pyridin-2-yl]-4-oxo-4,6,7,8-tetrahydropyrrolo[1,2-a]pyrimidine-6-carboxamide] | 11 to 100
15 | O=C(Cn1ncccc1=O)Nc1ccc(C[C@@H]2CC[C@H]([C@H](O)c3ccccc3)N2)cn1 [Example 3, N-[5-({(2S, 5R)-5-[(R)-hydroxy(phenyl)methyl]pyrrolidin-2-yl}methyl)pyridin-2-yl]-2-(6-oxopyridazin-1(6H)-yl)acetamide] | 101 to 1000
16 | O=C(Cc1nnc(-c2ccccc2)[nH]1)Nc1ccc(C[C@@H]2CC[C@H]([C@H](O)c3ccccc3)N2)cn1 [Example 4, N-[5-([(2S, 5R)-5-[(R)-hydroxy(phenyl)methyl]pyrrolidin-2-yl}methyl)pyridin-2-yl]-2-(5-phenyl-4H-1,2,4-triazol-3-yl)acetamide] | 11 to 100
